Laboratory results published in ChEMBL document CHEMBL1150556, “Tetraazaacenaphthene, tetraazaphenalene and 1,3,4-thiadiazole derivatives as potential leishmanicides” (1997).

Experiments:
[1] = test system: Leishmania donovani; test: In vitro leishmanicidal activity determined by measuring 3H thymidine incorporation in promastigotes of Leishmania donovani; type: functional; set-up: concentration or dose not given beside the values
[2] = In vivo leishmanicidal activity determined against amastigotes of Leishmania donovani in golden hamsters; type: functional, Mesocricetus auratus; set-up: concentration or dose not given beside the values
[3] = test system: Leishmania donovani; test: In vivo leishmanicidal activity determined against amastigotes of Leishmania donovani in golden hamsters; details: Mesocricetus auratus; dose or concentration not given here
[4] = test system: Leishmania donovani; test: In vitro leishmanicidal activity of compound was determined by measuring 3H thymidine incorporation in promastigotes of Leishmania donovani at concentration of 100 uM; type: functional
[5] = test system: Cricetulus griseus; test: TThe in vivo leishmanicidal activity of compound was determined against amastigotes of Leishmania donovani in golden hamsters (Mesocricetus auratus) at dose of 50 mg/kg for 5 days; Toxic; type: functional, organism-based; set-up: dose 50 mg/kg

Compound	Inhibition [1] [%]	Inhibition [2] [%]	further results
CCn1c(=N)c2c(=O)n(CC)c(=S)n3c2n(c1=S)CC3	20	71.2	–
CCO/C(O)=C(\C1=NCCCN1)c1nnc(N)s1	73	44.7	–
CCn1c(=O)c2c(=O)n(CC)c(=O)n3c2n(c1=O)CCC3	58	0	–
Sodium stibogluconate	–	–	inhibition [3]: 100%
O=c1c2c(=O)n(-c3ccccc3)c(=S)n3c2n(c(=S)n1-c1ccccc1)CC3	85	81.3	–
N=C(N)c1ccc(OCCCCCOc2ccc(C(=N)N)cc2)cc1 [PENTAMIDINE]	–	–	inhibition at 100 µM [4]: 100%
CCO/C(O)=C(\C1=NCCN1)c1nn2cc(-c3ccc(Br)cc3)nc2s1	31	0	–
Cc1ccccc1-n1c(=O)c2c(=O)n(-c3ccccc3C)c(=O)n3c2n(c1=O)CC3	93	0	–
CCn1c(=N)c2c(=O)n(CC)c(=S)n3c2n(c1=S)CCC3	99.2	50.7	–
CCO/C(O)=C(\C1=NCCN1)c1nnc(N)s1	0	–	–
CCOC(=O)C(=C1SCCCS1)c1nnc(N)s1	0	–	–
N=c1c2c(=O)n(-c3ccc(F)cc3)c(=S)n3c2n(c(=S)n1-c1ccc(F)cc1)CC3	99.3	–	inhibition [5]: Toxic
N=c1c2c(=O)n(-c3ccccc3)c(=S)n3c2n(c(=S)n1-c1ccccc1)CC3	99.3	78.6	–
CCn1c(=O)c2c(=O)n(CC)c(=S)n3c2n(c1=S)CC3	76	–	–
Cc1ccccc1-n1c(=N)c2c(=O)n(-c3ccccc3C)c(=O)n3c2n(c1=O)CC3	7	–	–
CCOC(=O)C(=C1SCCS1)c1nnc(N)s1	0	–	–
CCO/C(O)=C(\C1=NCCN1)c1nn2cc(-c3ccc(Cl)cc3)nc2s1	40	0	–
N#CC(=C1SCCS1)c1nnc(N)s1	18	–	–
O=c1c2c(=O)n(-c3ccc(F)cc3)c(=S)n3c2n(c(=S)n1-c1ccc(F)cc1)CC3	50	0	–
